According to patent publication US5132111A (priority 1990, dated 1992):
Non-standard residues stand in square brackets, D forms with d. Residues, ends and D or L forms follow the SMILES beside them. hArg = N=C(N)NCCCC[C@H](N)C(=O)O; Nle = CCCC[C@H](N)C(=O)O

system: cultured rat pituitary cells; assay type: cell-based

Row | Molecule | secretion of ACTH | secretion of β-endorphin (β-END-LI)
1 | H-VSEPPISLDLTFHLLREVLEMARAEQLAQQAHSNRRLMEEI-NH2 [[Val^1, Ser^2, Arg^36, Glu^40]-rCRF] | stimulates | stimulates
2 | H-SQEPPISLELTFHLLRE[Nle]LE[Nle]ARAEQEAEQAALNRLLLEEA-NH2 [[Glu^9, Nle^18, 21]-AAHC] | stimulates | stimulates
3 | H-SQEPPISLDLTFALLREMLEMARAEQEAEQAALNRLLLEEA-NH2 [[Ala13]-AAHC] | stimulates | stimulates
4 | CCCC[C@H](NC(=O)[C@H](CCC(=O)O)NC(=O)[C@H](CC(C)C)NC(=O)[C@H](CCCC)NC(=O)[C@H](CCC(=O)O)NC(=O)[C@H](CCCNC(=N)N)NC(=O)[C@H](CC(C)C)NC(=O)[C@H](CC(C)C)NC(=O)[C@H](Cc1c[nH]cn1)NC(=O)[C@H](Cc1ccccc1)NC(=O)[C@@H](NC(=O)[C@H](CC(C)C)NC(=O)[C@H](CC(=O)O)NC(=O)[C@H](CC(C)C)NC(=O)[C@H](CO)NC(=O)[C@@H](NC(=O)[C@@H]1CCCN1C(=O)[C@H]1CCCN1C(=O)[C@H](N)Cc1ccc(O)cc1)[C@@H](C)CC)[C@@H](C)O)C(=O)N[C@@H](C)C(=O)N[C@@H](CCCNC(=N)N)C(=O)N[C@@H](C)C(=O)N[C@@H](CCC(=O)O)C(=O)N[C@@H](CCC(N)=O)C(=O)N[C@@H](CCC(=O)O)C(=O)N[C@@H](C)C(=O)N[C@@H](CCC(=O)O)C(=O)N[C@@H](CCC(N)=O)C(=O)N[C@@H](C)C(=O)N[C@@H](C)C(=O)N[C@@H](CC(C)C)C(=O)N[C@@H](CC(N)=O)C(=O)N[C@@H](CCCNC(=N)N)C(=O)N[C@@H](CC(C)C)C(=O)N[C@@H](CC(C)C)C(=O)N[C@@H](CC(C)C)C(=O)N[C@@H](CCC(=O)O)C(=O)N[C@@H](CCC(=O)O)C(=O)N[C@@H](C)C(N)=O [[D-Tyr^3, D-Pro^4, Nle^18,21]-AHC(3-41)] (H-[dY][dP]PISLDLTFHLLRE[Nle]LE[Nle]ARAEQEAEQAALNRLLLEEA-NH2) | stimulates | stimulates
5 | CCCC[C@H](NC(=O)[C@@H](NC(=O)[C@H](CC(C)C)NC(=O)[C@H](CC(=O)O)NC(=O)[C@H](CC(C)C)NC(=O)[C@H](CO)NC(=O)[C@@H](NC(=O)[C@@H]1CCCN1C(=O)[C@@H]1CCCN1C(=O)[C@@H](N)CCC(=O)O)[C@@H](C)CC)[C@@H](C)O)C(=O)N[C@@H](Cc1c[nH]cn1)C(=O)N[C@@H](CC(C)C)C(=O)N[C@@H](CC(C)C)C(=O)N[C@@H](CCCNC(=N)N)C(=O)N[C@@H](CCC(=O)O)C(=O)N[C@H](C(=O)N[C@@H](CC(C)C)C(=O)N[C@@H](CCC(=O)O)C(=O)N[C@@H](CCSC)C(=O)N[C@@H](C)C(=O)N[C@@H](CCCNC(=N)N)C(=O)N[C@@H](C)C(=O)N[C@@H](CCC(=O)O)C(=O)N[C@@H](CCC(N)=O)C(=O)N[C@@H](CC(C)C)C(=O)N[C@@H](C)C(=O)N[C@@H](CCC(=O)O)C(=O)N[C@@H](CCC(N)=O)C(=O)N[C@@H](C)C(=O)N[C@@H](Cc1c[nH]cn1)C(=O)N[C@@H](CO)C(=O)N[C@@H](CC(N)=O)C(=O)N[C@@H](CCCNC(=N)N)C(=O)N[C@@H](CCCNC(=N)N)C(=O)N[C@@H](CC(C)C)C(=O)N[C@@H](CCSC)C(=O)N[C@@H](CCC(=O)O)C(=O)N[C@H](C(=O)N[C@H](C(N)=O)[C@@H](C)CC)[C@@H](C)CC)C(C)C (H-EPPISLDLT[Nle]HLLREVLEMARAEQLAEQAHSNRRLMEII-NH2) | stimulates | stimulates
6 | H-PPISLDLTFHLLREVLEMARAEQLAQQAHLNRRLMEEI-NH2 | stimulates | stimulates
7 | H-SEEPPISLDLTFHLLREVLE[Nle]ARAEQLAQQAYLNRRL[Nle]EEI-NH2 | stimulates | stimulates
8 | H-SQEPPISLDLTFHLLREMLEMARAEQEAEQAALNRLLLEEA-NH2 [AAHC] | biologically potent to stimulate the secretion | biologically potent to stimulate the secretion
9 | H-SEEPPISLDLTLELLREMLEME[hArg]AEREAEQAALNRLLLEEA-NH2 | stimulates | stimulates
10 | H-SQEPPISLDLTFHLLREVLEMTRADQLAQQAHSNRRLLDIA-NH2 [[Arg^23,36]-oCRF] | stimulates | stimulates
11 | H-GEEPPISLDLTFHLLREVLEMARAEQLAQQAHLNRRLMEEI-NH2 [[Gly^1, Leu^33, Glu^40]-rCRF] | stimulates | stimulates
12 | H-SEEPPISLDLTFHLLREVLEMTRAEQLAEQAHSNRRLMEEI-NH2 [[Thr^22, Glu^29,40, Arg^36]-rCRF] | stimulates | stimulates
13 | CCCC[C@H](NC(=O)[C@H](CCC(=O)O)NC(=O)[C@H](CC(C)C)NC(=O)[C@H](CCCC)NC(=O)[C@H](CCC(=O)O)NC(=O)[C@H](CCCNC(=N)N)NC(=O)[C@H](CC(C)C)NC(=O)[C@H](CC(C)C)NC(=O)[C@H](Cc1c[nH]cn1)NC(=O)[C@H](Cc1ccccc1)NC(=O)[C@@H](NC(=O)[C@H](CC(C)C)NC(=O)[C@H](CC(=O)O)NC(=O)[C@H](CC(C)C)NC(=O)[C@H](CO)NC(=O)[C@@H](NC(=O)[C@@H]1CCCN1C(=O)[C@@H]1CCCN1C(=O)[C@H](N)Cc1ccc(O)cc1)[C@@H](C)CC)[C@@H](C)O)C(=O)N[C@@H](C)C(=O)N[C@@H](CCCNC(=N)N)C(=O)N[C@@H](C)C(=O)N[C@@H](CCC(=O)O)C(=O)N[C@@H](CCC(N)=O)C(=O)N[C@@H](CCC(=O)O)C(=O)N[C@@H](C)C(=O)N[C@@H](CCC(=O)O)C(=O)N[C@@H](CCC(N)=O)C(=O)N[C@@H](C)C(=O)N[C@@H](C)C(=O)N[C@@H](CC(C)C)C(=O)N[C@@H](CC(N)=O)C(=O)N[C@@H](CCCNC(=N)N)C(=O)N[C@@H](CC(C)C)C(=O)N[C@@H](CC(C)C)C(=O)N[C@@H](CC(C)C)C(=O)N[C@@H](CCC(=O)O)C(=O)N[C@@H](CCC(=O)O)C(=O)N[C@@H](C)C(N)=O [[D-Tyr^3, Nle^18,21]-AAHC(3-41)] (H-[dY]PPISLDLTFHLLRE[Nle]LE[Nle]ARAEQEAEQAALNRLLLEEA-NH2) | stimulates | stimulates
14 | H-SEEPPISLDLTFHLLREVLE[Nle]A[hArg]AEQLAQQAHLNRRLMEE[Nle]-NH2 | stimulates | stimulates
15 | H-SQE[dP]PISLDLTFHLLRE[Nle]LE[Nle]ARAEQEAEQAALNRLLLEEA-NH2 [[D-Pro^4, Nle^18,21]-AAHC] | stimulates | stimulates
16 | CCCC[C@H](NC(=O)[C@H](CCC(=O)O)NC(=O)[C@H](CCCNC(=N)N)NC(=O)[C@H](CC(C)C)NC(=O)[C@H](CC(C)C)NC(=O)[C@H](Cc1c[nH]cn1)NC(=O)[C@H](Cc1ccccc1)NC(=O)[C@@H](NC(=O)[C@H](CC(C)C)NC(=O)[C@H](CC(=O)O)NC(=O)[C@H](CC(C)C)NC(=O)[C@H](CO)NC(=O)[C@@H](NC(=O)[C@@H]1CCCN1C(=O)[C@@H]1CCCN1C(=O)[C@H](CCC(=O)O)NC(=O)[C@@H](N)CCC(N)=O)[C@@H](C)CC)[C@@H](C)O)C(=O)N[C@@H](CC(C)C)C(=O)N[C@@H](CCC(=O)O)C(=O)N[C@@H](CCSC)C(=O)N[C@H](C(=O)N[C@@H](CCCNC(=N)N)C(=O)N[C@@H](C)C(=O)N[C@@H](CC(=O)O)C(=O)N[C@@H](CCC(N)=O)C(=O)N[C@@H](CC(C)C)C(=O)N[C@@H](C)C(=O)N[C@@H](CCC(N)=O)C(=O)N[C@@H](CCC(N)=O)C(=O)N[C@@H](C)C(=O)N[C@@H](Cc1c[nH]cn1)C(=O)N[C@@H](CO)C(=O)N[C@@H](CC(N)=O)C(=O)N[C@@H](CCCNC(=N)N)C(=O)N[C@@H](CCCNC(=N)N)C(=O)N[C@@H](Cc1ccc(O)cc1)C(=O)N[C@@H](CC(C)C)C(=O)N[C@@H](CC(=O)O)C(=O)N[C@@H](CCC(=O)O)C(=O)N[C@@H](C)C(N)=O)[C@@H](C)O (H-QEPPISLDLTFHLLRE[Nle]LEMTRADQLAQQAHSNRRYLDEA-NH2) | stimulates | stimulates
17 | CCCC[C@H](NC(=O)[C@H](CCC(=O)O)NC(=O)[C@H](CC(C)C)NC(=O)[C@H](CCCC)NC(=O)[C@H](CCC(=O)O)NC(=O)[C@H](CCCNC(=N)N)NC(=O)[C@H](CC(C)C)NC(=O)[C@H](CC(C)C)NC(=O)[C@H](Cc1c[nH]cn1)NC(=O)[C@H](Cc1ccccc1)NC(=O)[C@@H](NC(=O)[C@H](CC(C)C)NC(=O)[C@H](CC(=O)O)NC(=O)[C@H](CC(C)C)NC(=O)[C@H](CO)NC(=O)[C@@H](NC(=O)[C@@H]1CCCN1C(=O)[C@H]1CCCN1)[C@@H](C)CC)[C@@H](C)O)C(=O)N[C@@H](C)C(=O)N[C@@H](CCCNC(=N)N)C(=O)N[C@@H](C)C(=O)N[C@@H](CCC(=O)O)C(=O)N[C@@H](CCC(N)=O)C(=O)N[C@@H](CCC(=O)O)C(=O)N[C@@H](C)C(=O)N[C@@H](CCC(=O)O)C(=O)N[C@@H](CCC(N)=O)C(=O)N[C@@H](C)C(=O)N[C@@H](C)C(=O)N[C@@H](CC(C)C)C(=O)N[C@@H](CC(N)=O)C(=O)N[C@@H](CCCNC(=N)N)C(=O)N[C@@H](CC(C)C)C(=O)N[C@@H](CC(C)C)C(=O)N[C@@H](CC(C)C)C(=O)N[C@@H](CCC(=O)O)C(=O)N[C@@H](CCC(=O)O)C(=O)N[C@@H](C)C(N)=O [[D-Pro^4, Nle^18,21]-AAHC(4-41)] (H-[dP]PISLDLTFHLLRE[Nle]LE[Nle]ARAEQEAEQAALNRLLLEEA-NH2) | stimulates | stimulates
18 | H-SQ[dY][dP]PISLDLTFHLLRE[Nle]LE[Nle]ARAEQEAEQAALNRLLLEEA-NH2 [[D-Tyr^3, D-Pro^4, Nle^18, 21]-AAHC] | stimulates | stimulates
19 | H-SQEPPISLDLTFHLLRE[Nle]LE[Nle]TRADQLRQQAHSNRRLLDIA-NH2 [[Nle^18,21,Arg^23,28,36]-oCRF] | stimulates | stimulates
20 | H-SEEPPIS[Nle]DLSFHLLREVLEMARAEQLAQQAHLNRRLMEEI-NH2 | stimulates | stimulates
21 | H-SQEPPISLDLTFHLLREVLEMARAEQLAEQAHSNRRLLEII-NH2 [[Gln^2, Glu^29, Leu^38]-rCRF] | stimulates | stimulates
